Test results taken from patent US8822517B2, “Arylosulfonamides for the treatment of CNS diseases” (Adamed SP. Z O.O., priority 2010, dated 2014).

Assays:
[1] = target: T1, serotonine transporter (SERT) receptor (Homo sapiens, UniProt P31645); experiment: Binding assay SERT (h), [3H]imipramine, CHO cells; settings: read-out: SERT [%]
T1 construct: expressed in transfected cells; host or cells: CHO cells
Procedure: (§1) The specific ligand binding to the receptors is defined as the difference between the total binding and the nonspecific binding determined in the presence of an excess of so unlabelled ligand.
(§2) The specific Ligand binding to the receptor is defined as the difference between total and non-specific binding determined in the presence of an excess of unlabelled ligand. The compounds were tested at a concentration of 1×10^−6 M, and scintillation counting was the method of detection of ligand binding.

[2] = target: dopaminergic D3 receptor (Homo sapiens, UniProt P35462); experiment: Binding assay D3 (h), [3H]methyl-spiperone, CHO cells; parameters: expressed in transfected cells; host or cells: CHO cells; settings: read-out: D3 [%]
Procedure: as §1, §2

[3] = target: serotoninergic 5-HT6 receptor (Homo sapiens, UniProt P50406); experiment: Binding assay 5-HT6 (h), [3H]LSD, CHO cells; parameters: expressed in transfected cells; host or cells: CHO cells; settings: read-out: 5-HT6
Procedure: as §1, §2

[4] = target: serotoninergic 5-HT7 receptor (Homo sapiens, UniProt P34969); experiment: Binding assay 5-HT7 (h), [3H]LSD, CHO cells; parameters: expressed in transfected cells; host or cells: CHO cells; settings: read-out: 5-HT7
Procedure: as §1, §2

[5] = target: dopaminergic D2 receptor (Homo sapiens, UniProt P14416); experiment: Binding assay D2S (h), [3H]methyl-spiperone, HEK-293 cells; parameters: expressed in transfected cells; host or cells: HEK-293 cells; settings: read-out: D2 [%]
Procedure: as §1, §2

[6] = target: T2, serotoninergic 5-HT1A receptor (Homo sapiens, UniProt P08908); experiment: Binding assay 5-HT1A (h), [3H]8-OH-DPAT, HEK-293 cells; parameters: expressed in transfected cells; host or cells: HEK-293 cells; settings: read-out: 5-HT1A
T2 sequence (P08908 1-422): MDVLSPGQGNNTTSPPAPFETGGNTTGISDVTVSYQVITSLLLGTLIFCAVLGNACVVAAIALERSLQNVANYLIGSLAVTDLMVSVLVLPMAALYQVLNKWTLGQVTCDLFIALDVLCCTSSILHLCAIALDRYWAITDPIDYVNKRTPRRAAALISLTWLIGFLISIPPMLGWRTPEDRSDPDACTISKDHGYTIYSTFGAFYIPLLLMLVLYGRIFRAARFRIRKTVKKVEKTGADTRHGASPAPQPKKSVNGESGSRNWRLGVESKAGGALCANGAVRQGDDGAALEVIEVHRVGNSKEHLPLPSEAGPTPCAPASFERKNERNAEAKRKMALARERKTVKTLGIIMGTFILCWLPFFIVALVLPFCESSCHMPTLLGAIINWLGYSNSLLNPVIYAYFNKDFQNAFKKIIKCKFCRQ
Procedure: as §1, §2

[7] = target: serotoninergic 5-HT2A receptor (Homo sapiens, UniProt P28223); experiment: Binding assay 5-HT2A (h), [3H]ketanserin, HEK-293 cells; parameters: expressed in transfected cells; host or cells: HEK-293 cells; settings: read-out: 5-HT2A
Procedure: as §1, §2

[8] = system: adrenergic α1 receptor; experiment: Binding assay α1 (non-selective), [3H]prazosin, rat cerebral cortex; settings: percent inhibition of control specific binding; compounds tested at 1×10^−6 M
Procedure: as §1, §2

T1 sequence (P31645 whole entry): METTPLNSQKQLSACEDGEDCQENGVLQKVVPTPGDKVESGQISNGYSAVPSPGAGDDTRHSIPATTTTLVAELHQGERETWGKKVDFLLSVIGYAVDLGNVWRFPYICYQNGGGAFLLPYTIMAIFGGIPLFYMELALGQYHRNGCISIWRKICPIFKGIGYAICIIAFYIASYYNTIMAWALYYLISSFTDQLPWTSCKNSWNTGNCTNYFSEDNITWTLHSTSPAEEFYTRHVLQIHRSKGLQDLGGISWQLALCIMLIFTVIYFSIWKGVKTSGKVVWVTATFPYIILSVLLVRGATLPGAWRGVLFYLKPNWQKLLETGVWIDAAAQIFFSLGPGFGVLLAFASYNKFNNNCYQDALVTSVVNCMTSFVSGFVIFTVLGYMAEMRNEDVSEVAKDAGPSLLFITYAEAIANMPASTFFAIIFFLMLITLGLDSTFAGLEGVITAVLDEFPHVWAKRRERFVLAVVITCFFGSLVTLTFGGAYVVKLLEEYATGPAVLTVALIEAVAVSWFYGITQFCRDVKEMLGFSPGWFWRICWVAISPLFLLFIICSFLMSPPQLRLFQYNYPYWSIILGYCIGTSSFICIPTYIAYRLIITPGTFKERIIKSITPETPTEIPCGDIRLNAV
Chain of dopaminergic D3 receptor (P35462 whole entry): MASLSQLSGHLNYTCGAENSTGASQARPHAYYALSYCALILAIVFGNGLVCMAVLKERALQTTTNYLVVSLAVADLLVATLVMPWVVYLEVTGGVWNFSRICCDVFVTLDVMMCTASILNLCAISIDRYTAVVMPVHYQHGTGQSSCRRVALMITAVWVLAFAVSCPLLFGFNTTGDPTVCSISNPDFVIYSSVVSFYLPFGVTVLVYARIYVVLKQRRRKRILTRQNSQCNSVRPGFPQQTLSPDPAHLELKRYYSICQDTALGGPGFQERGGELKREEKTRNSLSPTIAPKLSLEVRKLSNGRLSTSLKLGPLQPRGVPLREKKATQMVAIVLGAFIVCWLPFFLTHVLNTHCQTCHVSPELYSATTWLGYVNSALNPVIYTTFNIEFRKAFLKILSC
Chain of serotoninergic 5-HT7 receptor (P34969 whole entry): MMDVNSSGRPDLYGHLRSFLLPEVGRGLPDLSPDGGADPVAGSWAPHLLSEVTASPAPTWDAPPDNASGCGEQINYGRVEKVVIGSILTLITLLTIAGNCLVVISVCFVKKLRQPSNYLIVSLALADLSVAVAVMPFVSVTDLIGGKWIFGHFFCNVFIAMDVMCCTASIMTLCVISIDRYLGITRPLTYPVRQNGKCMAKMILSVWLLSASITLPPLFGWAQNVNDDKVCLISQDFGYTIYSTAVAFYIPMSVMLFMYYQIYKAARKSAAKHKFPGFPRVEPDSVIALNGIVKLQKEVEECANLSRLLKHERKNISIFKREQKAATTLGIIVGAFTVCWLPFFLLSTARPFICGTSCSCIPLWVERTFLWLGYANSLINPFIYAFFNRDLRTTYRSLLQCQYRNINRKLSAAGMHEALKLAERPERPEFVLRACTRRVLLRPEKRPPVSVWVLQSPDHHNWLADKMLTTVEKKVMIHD
Chain of dopaminergic D2 receptor (P14416 1-414 isoform P14416-2): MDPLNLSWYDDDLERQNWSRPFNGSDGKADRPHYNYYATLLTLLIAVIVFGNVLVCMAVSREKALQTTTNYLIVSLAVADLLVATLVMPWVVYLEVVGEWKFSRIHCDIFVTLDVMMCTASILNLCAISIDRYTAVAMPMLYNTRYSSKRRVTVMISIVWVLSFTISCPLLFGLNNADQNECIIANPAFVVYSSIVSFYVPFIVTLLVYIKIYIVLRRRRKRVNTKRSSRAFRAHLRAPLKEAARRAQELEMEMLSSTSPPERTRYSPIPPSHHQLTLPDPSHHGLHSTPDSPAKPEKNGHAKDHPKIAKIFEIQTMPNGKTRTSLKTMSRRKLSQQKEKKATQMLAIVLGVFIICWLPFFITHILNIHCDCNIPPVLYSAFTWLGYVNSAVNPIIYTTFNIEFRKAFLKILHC
Chain of serotoninergic 5-HT2A receptor (P28223 whole entry): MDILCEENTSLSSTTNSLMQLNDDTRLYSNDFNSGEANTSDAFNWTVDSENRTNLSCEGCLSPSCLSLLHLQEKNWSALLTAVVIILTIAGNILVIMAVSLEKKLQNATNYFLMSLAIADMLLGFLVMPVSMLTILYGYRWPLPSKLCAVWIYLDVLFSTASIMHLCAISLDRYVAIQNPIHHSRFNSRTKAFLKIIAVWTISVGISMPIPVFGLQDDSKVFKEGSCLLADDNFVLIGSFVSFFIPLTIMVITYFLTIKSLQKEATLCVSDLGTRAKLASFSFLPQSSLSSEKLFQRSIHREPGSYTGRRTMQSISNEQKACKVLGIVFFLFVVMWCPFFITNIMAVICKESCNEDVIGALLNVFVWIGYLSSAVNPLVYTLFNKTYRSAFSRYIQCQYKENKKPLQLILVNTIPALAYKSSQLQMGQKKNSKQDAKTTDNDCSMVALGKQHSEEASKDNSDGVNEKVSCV
Chain of serotoninergic 5-HT6 receptor (P50406 whole entry): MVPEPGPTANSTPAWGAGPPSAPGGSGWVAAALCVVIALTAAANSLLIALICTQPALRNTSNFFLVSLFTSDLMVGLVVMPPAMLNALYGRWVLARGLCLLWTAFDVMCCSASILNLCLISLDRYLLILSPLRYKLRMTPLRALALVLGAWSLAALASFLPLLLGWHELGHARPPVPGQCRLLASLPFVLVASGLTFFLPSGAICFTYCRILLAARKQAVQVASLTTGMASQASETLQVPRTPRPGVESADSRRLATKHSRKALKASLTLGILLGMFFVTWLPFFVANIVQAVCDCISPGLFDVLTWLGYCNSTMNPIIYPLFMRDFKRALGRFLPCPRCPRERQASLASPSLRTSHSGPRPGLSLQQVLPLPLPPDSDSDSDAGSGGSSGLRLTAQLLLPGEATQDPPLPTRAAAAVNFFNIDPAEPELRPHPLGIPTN

| SMILES | inhibition at 1 µM [1] [%] | inhibition at 1 µM [2] [%] | inhibition at 1 µM [3] [%] | inhibition at 1 µM [4] [%] | inhibition at 1 µM [5] [%] | inhibition at 1 µM [6] [%] | inhibition at 1 µM [7] [%] | α1 [%] [8] [%] |
| --- | --- | --- | --- | --- | --- | --- | --- | --- |
| O=S(=O)(NCCCN1CCC(c2noc3cc(F)ccc23)CC1)c1cccc(Cl)c1 [Compound 106, 3-Chloro-N-[3-[4-(6-fluoro-1,2-benzoxazol-3-yl)piperidin-1-yl]propyl]benzenesulphonamide] | 2 | 97 | 93 | 91 | 108 | 63 | 97 |  |
| O=S(=O)(NCCCN1CCC(c2noc3cc(F)ccc23)CC1)c1cccc(Br)c1 [Compound 110, 3-Bromo-N-[3-[4-(6-fluoro-1,2-benzoxazol-3-yl)piperidin-1-yl]propyl]benzenesulphonamide] | 8 | 97 | 96 | 91 | 109 | 55 | 99 |  |
| O=c1[nH]c2cccc(N3CCN(CCCCNS(=O)(=O)c4cccc(Cl)c4)CC3)c2[nH]1 [Compound 173, 3-Chloro-N-[4-[4-(2-oxo-1,3-dihydrobenzimidazol-4-yl)piperazin-1-yl]butyl]benzenesulphonamide] |  | 98 |  |  |  |  |  | 89 |
| O=c1[nH]c2cccc(N3CCN(CCCCNS(=O)(=O)c4cccc(F)c4)CC3)c2[nH]1 [Compound 175, 3-Fluoro-N-[4-[4-(2-oxo-1,3-dihydrobenzimidazol-4-yl)piperazin-1-yl]butyl]benzenesulphonamide] |  | 87 |  |  |  |  |  | 82 |
| O=S(=O)(NCCCN1CCN(c2nsc3ccccc23)CC1)c1ccc(Cl)cc1 [Compound 250, N-[3-[4-(1,2-Benzothiazol-3-yl)piperazin-1-yl]propyl]-4-chlorobenzenesulphonamide] | 23 | 85 | 73 | 88 | 97 | 98 | 92 |  |
| O=S(=O)(NCCCN1CCC(c2noc3cc(F)ccc23)CC1)c1ccc(Cl)cc1 [Compound 328, 4-Chloro-N-[3-[4-(6-fluoro-1,2-benzoxazol-3-yl)piperidin-1-yl]propyl]benzenesulphonamide] | 7 | 99 | 87 | 92 | 108 | 58 | 90 |  |
| O=S(=O)(NCCCN1CCC(c2noc3cc(F)ccc23)CC1)c1ccc(Br)cc1 [Compound 330, 4-Bromo-N-[3-[4-(6-fluoro-1,2-benzoxazol-3-yl)piperidin-1-yl]propyl]benzenesulphonamide] | -2 | 99 | 83 | 90 | 108 | 67 | 93 |  |
| O=S(=O)(NCCCN1CCC(c2noc3cc(F)ccc23)CC1)c1ccc(Cl)s1 [Compound 341, 5-Chloro-N-[3-[4-(6-fluoro-1,2-benzoxazol-3-yl)piperidin-1-yl]propyl]thiophene-2-sulphonamide] | 8 | 98 | 93 | 78 | 98 | 74 | 102 |  |
| Cc1c(S(=O)(=O)NCCCN2CCC(c3noc4cc(F)ccc34)CC2)sc2ccc(Cl)cc12 [Compound 348, 5-Chloro-N-[3-[4-(6-fluoro-1,2-benzoxazol-3-yl)piperidin-1-yl]propyl]-3-methylbenzothiophene-2-sulphonamide] | 6 | 102 | 96 | 87 | 104 | 36 | 107 |  |
| Cc1[nH]c2ccc(Cl)cc2c1C1=CCN(CCCCNS(=O)(=O)c2ccc(F)cc2)CC1 [Compound 368, N-[4-[4-(5-Chloro-2-methyl-1H-indol-3-yl)-3,6-dihydro-2H-pyridin-1-yl]butyl]-4-fluorobenzenesulphonamide] | 14 | 94 | 96 | 42 | 41 | -7 | 64 |  |
| O=S(=O)(NCCCCN1CCN(c2cccc3c2OCCO3)CC1)c1ccc2cc(Cl)ccc2c1 [Compound 387, 6-Chloro-N-[4-[4-(2,3-dihydro-1,4-benzodioxin-5-yl)piperazin-1-yl]butyl]naphthalene-2-sulphonamide] | -14 | 93 | 26 | 96 |  | 100 | 90 | 86 |
| O=S(=O)(NCCCCN1CCN(c2cccc3c2OCCO3)CC1)c1cccs1 [Compound 397, N-[4-[4-(2,3-Dihydro-1,4-benzodioxin-8-yl)piperazin-1-yl]butyl]thiophene-2-sulphonamide] |  |  |  |  |  | 95 | 13 | 92 |
| O=S(=O)(NCCCN1CCN(c2cccc3c2OCCO3)CC1)c1ccc(F)c(F)c1 [Compound 410, N-[3-[4-(2,3-Dihydro-1,4-benzodioxin-5-yl)piperazin-1-yl]propyl]-3,4-difluorobenzenesulphonamide] |  |  |  |  |  | 96 | 42 | 84 |
| O=S(=O)(NCCCN1CCN(c2cccc3c2OCCO3)CC1)c1cccc(Br)c1 [Compound 413, 3-Bromo-N-[3-[4-(2,3-dihydro-1,4-benzodioxin-5-yl)piperazin-1-yl]propyl]benzenesulphonamide] |  |  |  |  |  | 88 | 40 | 90 |
| O=c1[nH]c2cccc(N3CCN(CCCCNS(=O)(=O)c4ccc(F)cc4)CC3)c2[nH]1 [Compound 420, 4-Fluoro-N-[4-[4-(2-oxo-1,3-dihydrobenzimidazol-4-yl)piperazin-1-yl]butyl]benzenesulphonamide] |  | 97 |  |  |  |  |  | 82 |
| O=c1[nH]c2cccc(N3CCN(CCCCNS(=O)(=O)c4ccc(Cl)cc4)CC3)c2[nH]1 [Compound 421, 4-Chloro-N-[4-[4-(2-oxo-1,3-dihydrobenzimidazol-4-yl)piperazin-1-yl]butyl]benzenesulphonamide] |  | 94 |  |  |  |  |  | 88 |
| Cc1cccc(S(=O)(=O)NCCCCN2CCN(c3cccc4[nH]c(=O)[nH]c34)CC2)c1 [Compound 422, 3-Methyl-N-[4-[4-(2-oxo-1,3-dihydrobenzimidazol-4-yl)piperazin-1-yl]butyl]benzenesulphonamide] |  | 98 |  |  |  |  |  | 86 |
| O=S(=O)(NCCCCN1CC=C(c2c[nH]c3ccc(F)cc23)CC1)c1cccc(O)c1 [Compound 434, N-[4-[4-(5-Fluoro-1H-indol-3-yl)-3,6-dihydro-2H-pyridin-1-yl]butyl]-3-hydroxybenzenesulphonamide] |  | 98 |  |  |  |  |  |  |
| O=S(=O)(NCCCN1CC=C(c2c[nH]c3ccc(F)cc23)CC1)c1cccc(F)c1 [Compound 436, 3-Fluoro-N-[3-[4-(5-fluoro-1H-indol-3-yl)-3,6-dihydro-2H-pyridin-1-yl]propyl]benzenesulphonamide] |  | 96 |  |  |  | 85 | 56 |  |
| Cc1[nH]c2ccc(Cl)cc2c1C1=CCN(CCCNS(=O)(=O)c2ccc(Cl)cc2)CC1 [Compound 444, 4-Chloro-N-[3-[4-(5-chloro-2-methyl-1H-indol-3-yl)-3,6-dihydro-2H-pyridin-1-yl]propyl]-benzenesulphonamide] | 44 | 74 | 87 | 59 |  | 51 | 65 | 26 |
